We go through eight molecules from PubChem BioAssay (NCI).

Some test systems named below: HCC-2998 colon; NCI-H226 lung; NCI-H460 lung; NCI/ADR-RES ovarian; PC-3 prostate; RPMI-8226 leukemia; SF-295 CNS; SK-MEL-28 melanoma; U251 CNS; UACC-62 melanoma.
Holding throughout (experiment): inhibition of tumour cell growth, NCI panel, 48 h

The structures appear in SMILES notation.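 These data come from cells grown in 96-well plates and exposed to compound for 48 hours at five concentrations. GI50 = concentration required for 50% inhibition of growth. TGI: concentration producing complete growth inhibition.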

For `CNC(=O)c1ccccc1Nc1nc(Nc2ccc(N3CCOCC3)cc2OC)ncc1Cl`, the GI50 is 0.636 µM in the assay with HCC-2998 colon; 1.01 µM with NCI-H226 lung; 0.361 µM in the assay with NCI-H460 lung; 1.11 µM in the assay with NCI/ADR-RES ovarian; 1.39 µM in the assay with PC-3 prostate; 2.02 µM in the assay with RPMI-8226 leukemia. Besides, the GI50 in the assay with SF-295 CNS was 0.503 µM; in the assay on SK-MEL-28 melanoma it was 1.35 µM; in the assay on U251 CNS, 1.94 µM; with UACC-62 melanoma, 0.239 µM. In addition, the TGI with HCC-2998 colon was greater than 43.2 µM; in the assay with NCI-H226 lung, greater than 74 µM; with NCI-H460 lung it was greater than 34.4 µM; in the assay with NCI/ADR-RES ovarian, greater than 50.7 µM; with PC-3 prostate it was greater than 66.9 µM; in the assay on RPMI-8226 leukemia, greater than 48.5 µM. Further, the TGI in the assay on SF-295 CNS is 11.1 µM; in the assay on SK-MEL-28 melanoma, greater than 37.1 µM; with U251 CNS, greater than 47.8 µM; in the assay on UACC-62 melanoma, 2.73 µM.

Consider `COc1ccc(-c2cc(-c3ccc(Nc4nc(Nc5ccccc5)nc(Nc5ccc(Cl)cc5)n4)cc3)nc(N)c2C#N)cc1`, for which the GI50 was 1.41 µM in the assay on HCC-2998 colon; 1.08 µM with NCI-H226 lung; 2.18 µM with NCI-H460 lung; 3.66 µM with NCI/ADR-RES ovarian; 1.13 µM with PC-3 prostate; 0.828 µM in the assay with RPMI-8226 leukemia. The GI50 in the assay on SF-295 CNS was 1.54 µM; with SK-MEL-28 melanoma, 0.857 µM; in the assay on U251 CNS it was 1.23 µM; in the assay with UACC-62 melanoma, 1.47 µM. Moreover, the TGI was 4.41 µM in the assay on HCC-2998 colon; 2.73 µM in the assay on NCI-H226 lung; greater than 39 µM in the assay on NCI-H460 lung; greater than 43.1 µM with NCI/ADR-RES ovarian; 7.94 µM with PC-3 prostate; 3.79 µM with RPMI-8226 leukemia. In addition, the TGI in the assay with SF-295 CNS stood at 7.28 µM; in the assay with SK-MEL-28 melanoma, 1.76 µM; in the assay on U251 CNS, 3.68 µM; in the assay with UACC-62 melanoma, 6.73 µM.

As for `Cc1ccc(-c2nnc(-c3ccc4ccccc4c3)o2)cc1`, the TGI in the assay with HCC-2998 colon is greater than 100 µM; with NCI-H226 lung it was 99.9 µM; in the assay on NCI-H460 lung it was greater than 100 µM; in the assay with NCI/ADR-RES ovarian, greater than 79.2 µM; in the assay with PC-3 prostate it was greater than 100 µM; in the assay on RPMI-8226 leukemia it was greater than 100 µM. Also, the TGI in the assay on SF-295 CNS is greater than 100 µM; in the assay with SK-MEL-28 melanoma, greater than 100 µM; with U251 CNS, greater than 100 µM; in the assay with UACC-62 melanoma, greater than 85.6 µM.

Take `CCCCCCCC(=O)SCC/C=C/[C@@H]1CC(=O)NCc2cccc(n2)C2=N[C@@](C)(CS2)C(=O)N[C@@H](C(C)C)C(=O)N1`: the GI50 with HCC-2998 colon was 1.02 µM; with NCI-H226 lung it was 7.19 µM; in the assay with NCI-H460 lung it was 0.532 µM; in the assay on NCI/ADR-RES ovarian, 31.7 µM; in the assay on PC-3 prostate, 0.657 µM; in the assay on RPMI-8226 leukemia, 0.639 µM. Further, the GI50 with SF-295 CNS is 0.804 µM; with SK-MEL-28 melanoma it was 1.02 µM; in the assay on U251 CNS, 0.889 µM; in the assay with UACC-62 melanoma, 0.192 µM. Further, the TGI in the assay on HCC-2998 colon was 7.48 µM; with NCI-H226 lung, greater than 33.3 µM; with NCI-H460 lung, greater than 33.3 µM; in the assay on NCI/ADR-RES ovarian, greater than 33.3 µM; in the assay with PC-3 prostate it was greater than 33.3 µM; with RPMI-8226 leukemia, greater than 33.3 µM. Further, the TGI with SF-295 CNS was 8.59 µM; in the assay with SK-MEL-28 melanoma it was greater than 33.3 µM; in the assay with U251 CNS, 8.16 µM; in the assay with UACC-62 melanoma it was 4.88 µM.

As for `O=C(O)c1cc(C(=O)O)cc(N2C(=O)c3ccccc3C2=O)c1`, the TGI in the assay with HCC-2998 colon, in the assay with NCI-H226 lung, in the assay with NCI-H460 lung, in the assay on NCI/ADR-RES ovarian, with PC-3 prostate and in the assay on RPMI-8226 leukemia was greater than 100 µM each time. The TGI in the assay on SF-295 CNS, with SK-MEL-28 melanoma, in the assay on U251 CNS and in the assay with UACC-62 melanoma was greater than 100 µM in each case.

With `CSc1ccccc1C#C/C=C\C#Cc1ccccc1N1CCCC1=O`, the TGI in the assay on HCC-2998 colon is greater than 33.8 µM; in the assay with NCI-H226 lung, greater than 50 µM; in the assay on NCI-H460 lung it was greater than 50 µM; in the assay with NCI/ADR-RES ovarian it was greater than 19.9 µM; in the assay with PC-3 prostate, greater than 50 µM; in the assay with SF-295 CNS, greater than 50 µM. Moreover, the TGI in the assay with SK-MEL-28 melanoma, in the assay on U251 CNS and in the assay on UACC-62 melanoma was greater than 50 µM throughout. Further, the GI50 in the assay on NCI-H226 lung is greater than 11.4 µM; in the assay on PC-3 prostate, greater than 50 µM; in the assay with RPMI-8226 leukemia, 3.34 µM; in the assay with SF-295 CNS, greater than 50 µM; in the assay on U251 CNS, greater than 11 µM.

Turning to `O=C(CCl)N1c2ccccc2Oc2ccc3ccccc3c21`, the GI50 was 1.86 µM with HCC-2998 colon; 1.63 µM in the assay on NCI-H226 lung; 2 µM in the assay with NCI-H460 lung; 2.36 µM in the assay on NCI/ADR-RES ovarian; 1.72 µM with PC-3 prostate; 0.768 µM in the assay on RPMI-8226 leukemia. For the same molecule, the GI50 is 2.41 µM in the assay with SF-295 CNS, 1.83 µM in the assay on SK-MEL-28 melanoma, 1.36 µM in the assay with U251 CNS and 1.57 µM in the assay with UACC-62 melanoma. In addition, the TGI in the assay with HCC-2998 colon was 3.59 µM; in the assay on NCI-H226 lung, 3.26 µM; in the assay on NCI-H460 lung, 4.11 µM; in the assay on NCI/ADR-RES ovarian, greater than 24 µM; in the assay on PC-3 prostate it was 3.62 µM; in the assay with RPMI-8226 leukemia, 3.12 µM. The TGI in the assay with SF-295 CNS is 5.92 µM; in the assay with SK-MEL-28 melanoma it was 3.34 µM; with U251 CNS, 2.7 µM; in the assay on UACC-62 melanoma, 3 µM.

`O=C1c2cccnc2-c2nc(-c3ccccc3[N+](=O)[O-])cc3c2c1nc1ccccc13`: the GI50 with HCC-2998 colon is 19.7 µM; with NCI-H226 lung, greater than 100 µM; with NCI-H460 lung, 12 µM; with NCI/ADR-RES ovarian it was 22.3 µM; in the assay on PC-3 prostate, 19.5 µM; in the assay with RPMI-8226 leukemia it was greater than 23.8 µM. The GI50 with SF-295 CNS is 25.9 µM; in the assay with SK-MEL-28 melanoma, 27.6 µM; with U251 CNS, 4 µM; in the assay with UACC-62 melanoma, 9.9 µM. In addition, the TGI with HCC-2998 colon is 45 µM; in the assay on NCI-H226 lung, greater than 100 µM; with NCI-H460 lung, 33.8 µM; with NCI/ADR-RES ovarian it was greater than 69.3 µM; in the assay with PC-3 prostate, 69.1 µM; with RPMI-8226 leukemia, greater than 100 µM. The TGI with SF-295 CNS is greater than 85.9 µM; in the assay on SK-MEL-28 melanoma, greater than 63.5 µM; with U251 CNS, 19.6 µM; with UACC-62 melanoma, 40.9 µM.
